Key:
[1] = solutions of 25% wv, in six hours at 5°C; cited from earlier work
DNA ligase = test: Storage stability of dried ATP by DNA ligase assay; format: biochemical; conditions: ATP at 0.5 mM dried with ligase in trehalose buffer, no acetate as efflorescent salt; 2 weeks at 37°C
Description: Using an assay for DNA ligase whioh joins DNA fragments using ATP as an energy source.

Structure (SMILES) | loss of potency [1] [%] | stability of ATP in the dry state (DNA ligase)
CC1(C)S[C@@H]2[C@H](NC(=O)[C@H](N)c3ccccc3)C(=O)N2[C@H]1C(=O)O [Ampicillin sodium] | 20 | 
Nc1ncnc2c1ncn2[C@@H]1O[C@H](COP(=O)(O)OP(=O)(O)OP(=O)(O)O)[C@@H](O)[C@H]1O [ATP] |  | completely stable

From patent EP0415567A2, “Composition and method for stabilising organic compounds” (QUADRANT BIORESOURCES LIMITED, priority 1989, dated 1991)
